The source of these data is ChEMBL document CHEMBL4811216, “Chemotherapy for human schistosomiasis: how far have we come? What's new? Where do we go from here?” (RSC Med Chem, 2020).

The subject of test [1] is Schistosoma mansoni. Put plainly: Antischistosomal activity against Schistosoma mansoni Schistosomula assessed as worm death at 10 uM incubated for 24 hrs relative to control. It counts as functional.
Test [2] addresses T1, Thioredoxin glutathione reductase (Schistosoma mansoni, UniProt Q962Y6).
T1 sequence (Q962Y6 whole entry): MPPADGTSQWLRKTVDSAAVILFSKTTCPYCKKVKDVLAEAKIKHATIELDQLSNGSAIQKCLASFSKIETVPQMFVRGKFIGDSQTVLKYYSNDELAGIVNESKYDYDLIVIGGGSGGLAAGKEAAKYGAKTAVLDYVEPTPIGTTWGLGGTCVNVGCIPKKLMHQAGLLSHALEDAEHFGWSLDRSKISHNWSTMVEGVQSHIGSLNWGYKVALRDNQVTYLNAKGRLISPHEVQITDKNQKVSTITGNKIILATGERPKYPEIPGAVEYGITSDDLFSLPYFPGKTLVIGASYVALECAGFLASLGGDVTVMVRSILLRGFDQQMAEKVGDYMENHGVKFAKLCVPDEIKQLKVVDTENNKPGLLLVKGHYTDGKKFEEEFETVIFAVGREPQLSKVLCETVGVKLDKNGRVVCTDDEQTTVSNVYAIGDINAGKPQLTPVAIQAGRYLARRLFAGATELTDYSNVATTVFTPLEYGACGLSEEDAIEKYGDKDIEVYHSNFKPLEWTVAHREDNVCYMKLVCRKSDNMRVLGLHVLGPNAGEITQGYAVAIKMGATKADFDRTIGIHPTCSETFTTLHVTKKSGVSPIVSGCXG
In words: Inhibition of Schistosoma mansoni thioredoxin glutathione reductase incubated for 30 mins by DTNB assay.

Test [3] has as its system Schistosoma haematobium. In words: Antischistosomal activity against Schistosoma haematobium assessed as worm death at 10 uM incubated for 120 hrs relative to control. It counts as functional.
Test [4] deals with Schistosoma mansoni. Put plainly: Antischistosomal activity against juvenile Schistosoma mansoni assessed as worm death at 10 uM incubated for 24 hrs relative to control. It counts as functional.
Test [5] concerns Schistosoma mansoni. In words: Antischistosomal activity against adult Schistosoma mansoni assessed as worm death at 10 uM incubated for 120 hrs relative to control. It counts as functional.
Test [6] relates to Schistosoma japonicum. Put plainly: Antischistosomal activity against Schistosoma japonicum assessed as worm death at 10 uM incubated for 120 hrs relative to control. It counts as functional. The note with it: for mortality at 10 µM: Schistosoma japonicum.
Test [7] concerns Schistosoma japonicum. In words: Antischistosomal activity against adult Schistosoma japonicum assessed as worm death at 12.5 uM incubated for 120 hrs relative to control. It counts as functional.
In test [8] the test system is Schistosoma mansoni. Put plainly: Antischistosomal activity against Schistosoma mansoni Schistosomula assessed as worm death at 12.5 uM incubated for 120 hrs relative to control. It counts as functional.
In test [9] the test system is Schistosoma mansoni. Put plainly: Antischistosomal activity against adult Schistosoma mansoni assessed as worm death at 12.5 uM incubated for 120 hrs relative to control. It counts as functional.
The test system of test [10] is Schistosoma mansoni. Put plainly: Antischistosomal activity against juvenile Schistosoma mansoni assessed as worm death at 12.5 uM incubated for 120 hrs relative to control. It counts as functional.
Test [11] relates to Schistosoma mansoni. Put plainly: Antischistosomal activity against Schistosoma mansoni by confocal laser scanning microscopy. It counts as functional, organism-based.
For test [12], the system named is Schistosoma mansoni. Put plainly: Antischistosomal activity against juvenile Schistosoma mansoni assessed as worm death at 10 uM incubated for 120 hrs relative to control. It counts as functional.
Test [13] relates to Schistosoma haematobium. Put plainly: Antischistosomal activity against Schistosoma haematobium assessed as worm death at 10 uM incubated for 144 hrs relative to control. It counts as functional.
Test [14] relates to Schistosoma mansoni. Put plainly: Antischistosomal activity against Schistosoma mansoni assessed as worm death at 10 uM incubated for 48 hrs relative to control. It counts as functional.
The subject of test [15] is Schistosoma mansoni. In words: Antischistosomal activity against Schistosoma mansoni assessed as worm death at 10 uM incubated for 72 hrs relative to control. It counts as functional.
The subject of test [16] is Schistosoma haematobium. In words: Antischistosomal activity against Schistosoma haematobium assessed as worm death at 10 uM incubated for 96 hrs relative to control. It counts as functional.
Test [17] can be described thus: Inhibition of NACE in Schistosoma mansoni using 1-N6-ethenonicotinamide adenine dinucleotide as substrate incubated for 30 mins by fluorometric assay.
Test [18] is described as follows: Inhibition of C-terminal His6-tagged Schistosoma mansoni NACE expressed in Pichia pastoris using 1-N6-ethenonicotinamide adenine dinucleotide as substrate by fluorometric assay.
The test system of test [19] is Schistosoma mansoni. In words: Antischistosomal activity against Schistosoma mansoni Egyptian assessed as worm death at 50 to 200 ug/ml incubated upto 72 hrs by stereomicroscopy. It counts as functional. The note with it: dose 50-200 µg/ml; time hrs <=72; at 50 to 200 µg/mL.
Test [20] deals with Schistosoma mansoni. Put plainly: Antischistosomal activity against Schistosoma mansoni Egyptian assessed as reduction in motor activity at 50 to 200 ug/ml incubated upto 72 hrs by stereomicroscopy. It counts as functional. Also noted: scale not given: the % may be the effect or the level left. The note with it: dose 50-200 µg/ml; time hrs <=72; at 50 to 200 µg/mL.
For test [21], the system named is Schistosoma mansoni. Put plainly: Antischistosomal activity against Schistosoma mansoni Egyptian assessed as tegument damage at 50 to 200 ug/ml incubated upto 72 hrs by inverted microscopy. It counts as functional. The note with it: dose 50-200 µg/ml; time hrs <=72; at 50 to 200 µg/mL.
The subject of test [22] is Schistosoma mansoni. In words: Antischistosomal activity against Schistosoma mansoni infected in MF1 swiss albino mouse assessed as worm burden reduction at 200 mg/kg, po measured after 2 weeks by stereomicroscopy relative to control. Also noted: scale not given: the % may be the effect or the level left. It counts as functional.
The subject of test [23] is Schistosoma mansoni. Put plainly: Antischistosomal activity against Schistosoma mansoni Egyptian assessed as reduction in egg production at 50 to 200 ug/ml incubated upto 72 hrs by microscopic method relative to control. It counts as functional. Also noted: scale not given: the % may be the effect or the level left. The note with it: dose 50-200 µg/ml; time hrs <=72; at 50 to 200 µg/mL.

Test [24] concerns Schistosoma mansoni. In words: Antischistosomal activity against Schistosoma mansoni assessed as worm death at 50 uM in presence of red blood cells relative to control. It counts as functional.
The test system of test [25] is Schistosoma mansoni. Put plainly: Antischistosomal activity against adult Schistosoma mansoni Puerto-Rican incubated for 7 days by stereomicroscopy. It counts as functional. The note with it: time 7 day.
Test [26] has as its system Schistosoma mansoni. Put plainly: Antischistosomal activity against Schistosoma mansoni schistosomula incubated for 24 hrs by celltiter-glo reagent based assay. It counts as functional, organism-based. (ATP-based viability assays read luminescence as a measure of living cells.)
Test [27] concerns Schistosoma mansoni. Put plainly: Antischistosomal activity against Schistosoma mansoni BH assessed as worm death at 50 uM measured after 72 to 120 hrs by inverted optical microscopic method relative to control. It counts as functional. The note with it: time 72-120 hrs.
For another test, the target named is T2, ATP-diphosphohydrolase 1 (Schistosoma mansoni, UniProt Q7YTA4).
T2 sequence (Q7YTA4 whole entry): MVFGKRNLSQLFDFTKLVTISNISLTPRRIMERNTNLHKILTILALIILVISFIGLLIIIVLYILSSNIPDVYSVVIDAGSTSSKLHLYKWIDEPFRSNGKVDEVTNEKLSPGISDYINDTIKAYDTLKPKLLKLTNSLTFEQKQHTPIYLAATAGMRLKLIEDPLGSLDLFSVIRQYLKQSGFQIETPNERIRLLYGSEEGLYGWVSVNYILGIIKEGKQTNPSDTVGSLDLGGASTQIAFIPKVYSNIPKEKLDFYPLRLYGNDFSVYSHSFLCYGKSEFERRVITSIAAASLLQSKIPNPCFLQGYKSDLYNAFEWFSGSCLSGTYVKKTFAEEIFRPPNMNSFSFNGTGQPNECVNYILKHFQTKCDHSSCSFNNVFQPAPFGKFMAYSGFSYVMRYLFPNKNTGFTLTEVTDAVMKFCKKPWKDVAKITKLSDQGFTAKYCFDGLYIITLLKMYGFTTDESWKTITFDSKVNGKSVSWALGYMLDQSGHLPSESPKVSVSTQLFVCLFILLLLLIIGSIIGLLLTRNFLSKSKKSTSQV
In words: Inhibition of Schistosoma mansoni ATPDase1 preincubated for 30 mins followed by addition of ATP/ADP by spectrophotometric method.

The subject of test [28] is Schistosoma mansoni. Put plainly: Antischistosomal activity against Schistosoma mansoni BH assessed as reduction in motor activity at 25 uM measured after 24 hrs by light microscopy relative to control. Also noted: scale not given: the % may be the effect or the level left. It counts as functional.
Test [29] has as its target T3, ATP-diphosphohydrolase 1 (Schistosoma mansoni) (UniProt Q7YTA4).
T3 sequence (whole entry): T2 sequence (Q7YTA4 whole entry)
Put plainly: Inhibition of Schistosoma mansoni ATPDase1 at 40 uM preincubated for 30 mins followed by addition of ATP/ADP by spectrophotometric method relative to control.

In test [30] the test system is Schistosoma mansoni. In words: Antischistosomal activity against Schistosoma mansoni BH assessed as extensive tegumental alteration at 25 uM measured after 24 hrs by light microscopy relative to control. It counts as functional.
In test [31] the test system is Schistosoma mansoni. Put plainly: Antischistosomal activity against juvenile Schistosoma mansoni assessed as worm death at 10 uM incubated for 72 hrs relative to control. It counts as functional.
In test [32] the test system is Schistosoma mansoni. Put plainly: Antischistosomal activity against adult Schistosoma mansoni assessed as worm death at 10 uM incubated for 144 hrs relative to control. It counts as functional.

Molecules are shown by their SMILES.

`CCN(c1ccccc1)S(=O)(=O)c1ccc(NC(=O)c2nc(S(C)(=O)=O)ncc2Cl)cc1`: the mortality (usually the percentage killed) at 10 µM in the test on Schistosoma mansoni [1] was found to be 100%; in the test with Schistosoma haematobium [3], 94%; in the test on Schistosoma mansoni [4] it was 100%; with Schistosoma mansoni [5] it was 78%; with Schistosoma japonicum [6], 50%. The half-inhibitory concentration (IC50) (in general, the concentration that inhibits the measured activity by half) in test [2] was 0.21 µM.

Consider `CCOC(=O)C(C(=O)OCC)C1=C(Br)C2=NOC3c4ccccc4C(=O)C(=C1)C23` (stereo not given), for which the IC50 in test [2] was 0.14 µM. The mortality at 12.5 µM in the test on Schistosoma japonicum [7] stood at 100%; in the test with Schistosoma mansoni [8], 96%; with Schistosoma mansoni [9] it was 28%; in the test with Schistosoma mansoni [10], 100%.

`COc1cc(/C=N/NC(=O)c2ccc(C(C)(C)C)cc2)ccc1O` returned an IC50 in the test on Schistosoma mansoni [11] of 47.9 µM.

As for `COC(=O)CS(=O)(=O)c1nnc(C(Cc2ccccc2)NC(=O)OC(C)(C)C)o1` (stereo not given), the mortality at 10 µM with Schistosoma mansoni [1] stood at 99%; in the test with Schistosoma mansoni [5] it was 62%; with Schistosoma mansoni [12], 39%; in the test on Schistosoma haematobium [13], 67%; with Schistosoma japonicum [6] it was 65%. This molecule displayed a half-inhibitory concentration (IC50) in [2] of 0.33 µM.

`O=c1c(Cl)c(-n2cc(CO)nn2)cnn1-c1ccccc1`: the Activity in the test with Schistosoma mansoni [14] was determined as 100%; with Schistosoma mansoni [15], 100%; in the test with Schistosoma haematobium [16] it was 100%; with Schistosoma japonicum [6], 70%. Also, the mortality at 10 µM in the test on Schistosoma mansoni [1] was 100%. The molecule further displayed an IC50 in test [2] of 2.84 µM.

Regarding `O=C(Nc1nc(=O)c2ccccc2s1)c1ccco1`, the results for the IC50 in test [17] and in [18] were 20 µM and 2.2 µM, respectively.

`O=S(=O)(c1ccc(O)c2ncccc12)C1C(c2ccccc2)=Nc2ccncc2N=C1c1ccccc1` (stereo not given): the mortality with Schistosoma mansoni [19] is 100%. Moreover, the Activity with Schistosoma mansoni [20] was 100%; in the test on Schistosoma mansoni [21], 20%; with Schistosoma mansoni [22], 81.2%; with Schistosoma mansoni [23], 54%.

On to `CC1=C(Cc2ccc(C(F)(F)F)cc2)C(=O)c2cc(C)cnc2C1=O`, for which, in the test on Schistosoma mansoni [24], the Activity was determined as 100%.

In the test on Schistosoma mansoni [25], `COC1=C(Cc2ccc(OC)cc2)C(=O)C2=C(NCCS2(=O)=O)C1=O` showed an Activity of 100%. For the same molecule, it took 13.9 µM to reach half-maximal inhibition in the test with Schistosoma mansoni [26] (IC50).

Regarding `O=C1CS/C(=N\N=C/c2cccc3c2OCO3)N1c1ccc(Br)cc1`, the Activity in the test with Schistosoma mansoni [27] is reported as 83.3%.

On to `COc1cc(O)cc(O)c1C(=O)/C=C/c1ccccc1` [CARDAMOMIN], for which the IC50 against ATP-diphosphohydrolase 1 amounted to 23.5 µM. For the same molecule, the Activity in the test on Schistosoma mansoni [28] and with Schistosoma mansoni [30] was 100% each time. Moreover, the inhibition (usually the share of the control response that was lost under treatment) in test [29] amounted to 82%.

On to `O=[N+]([O-])c1ccc2c(c1)S(=O)(=O)C=C2`, for which the mortality at 10 µM in the test on Schistosoma mansoni [31] stood at 100%; in the test on Schistosoma mansoni [1] it was 100%; in the test with Schistosoma haematobium [3] it was 85%; in the test on Schistosoma mansoni [32] it was 76%; in the test on Schistosoma japonicum [6] it was 69%. The IC50 in test [2] was determined as 2.01 µM.
